According to publication PMC12094722, “Small-molecule inhibitors of 6-phosphofructo-1-kinase simultaneously suppress lactate and superoxide generation in cancer cells” (PLOS One, 2025):
Where “and” joins values, the source holds several entries; their conditions need not be identical. Identical values can stand only once. Values belong to the compound of their own block, whether it stands above or below them.

How the values were obtained:
[1] = target: T1, modified sfPFK-M enzyme (47 kDa fragment) (Homo sapiens, UniProt P08237); experiment: PFK1 enzymatic assay, modified sfPFK-M; format: biochemical
T1 sequence (P08237 2-390 limits assumed): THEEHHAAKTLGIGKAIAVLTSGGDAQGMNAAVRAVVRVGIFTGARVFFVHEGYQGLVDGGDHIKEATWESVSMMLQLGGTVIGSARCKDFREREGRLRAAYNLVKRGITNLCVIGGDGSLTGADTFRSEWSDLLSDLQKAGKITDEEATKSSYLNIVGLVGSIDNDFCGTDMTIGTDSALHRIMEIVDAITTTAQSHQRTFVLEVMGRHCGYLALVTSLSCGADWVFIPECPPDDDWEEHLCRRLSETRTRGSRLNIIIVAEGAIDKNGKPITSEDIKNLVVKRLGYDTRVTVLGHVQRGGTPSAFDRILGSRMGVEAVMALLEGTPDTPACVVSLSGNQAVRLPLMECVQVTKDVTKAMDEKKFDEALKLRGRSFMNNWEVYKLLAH
Procedure: (§1) To evaluate the ability of selected compounds to suppress the activities of the recombinant human native and modified PFK-M and PFK-L enzymes, they were constructed in yeast S. cerevisiae as a host organism (S1 Text), partially purified, and their activities assayed (S2 Text).
(§2) S2 Text: PFK1 Enzymatic assays.
(§3) PFK1 activities were determined spectrophotometrically at 340 nm (Lambda 25 UV/VIS spectrophotometer, Perkin Elmer) as reported previously using a coupled reaction system. Unless otherwise stated, in a final volume of 1 mL, the assay mixture contained 50 mM HEPES buffer (pH 7.8), 1 mM DTE, 100 mM KCl, 5 mM MgCl2, 0.2 mM NADH, 0,025 to 2 mM F6P, 10% v/v polyethylene glycol (PEG 6000), 0.9 U/mL aldolase (Sigma-Aldrich, Steinheim, Germany), 15 U/mL triosephosphate isomerase, and 15 U/mL glycerol-3-phosphate dehydrogenase (Sigma-Aldrich, Steinheim, Germany). Before use, the auxiliary enzymes were dialyzed overnight at 4 °C against 50 mM HEPES buffer (pH 7.8) containing 1 mM DTE, with one buffer […]
(§4) induce inhibition. The enzyme concentration used in the kinetic assay was 0.2 µg/mL. […] Total protein concentrations of the samples were determined using a Bio-Rad protein assay (Bio-Rad, Hercules, Ca) with bovine y-globulin […]

[2] = target: T2, native nPFK-M enzyme (85 kDa) (Homo sapiens, UniProt P08237); experiment: PFK1 enzymatic assay, native nPFK-M; format: biochemical
T2 construct: made in house; host or cells: Saccharomyces cerevisiae pfk-null HD-114-8A
T2 sequence (P08237 1-780): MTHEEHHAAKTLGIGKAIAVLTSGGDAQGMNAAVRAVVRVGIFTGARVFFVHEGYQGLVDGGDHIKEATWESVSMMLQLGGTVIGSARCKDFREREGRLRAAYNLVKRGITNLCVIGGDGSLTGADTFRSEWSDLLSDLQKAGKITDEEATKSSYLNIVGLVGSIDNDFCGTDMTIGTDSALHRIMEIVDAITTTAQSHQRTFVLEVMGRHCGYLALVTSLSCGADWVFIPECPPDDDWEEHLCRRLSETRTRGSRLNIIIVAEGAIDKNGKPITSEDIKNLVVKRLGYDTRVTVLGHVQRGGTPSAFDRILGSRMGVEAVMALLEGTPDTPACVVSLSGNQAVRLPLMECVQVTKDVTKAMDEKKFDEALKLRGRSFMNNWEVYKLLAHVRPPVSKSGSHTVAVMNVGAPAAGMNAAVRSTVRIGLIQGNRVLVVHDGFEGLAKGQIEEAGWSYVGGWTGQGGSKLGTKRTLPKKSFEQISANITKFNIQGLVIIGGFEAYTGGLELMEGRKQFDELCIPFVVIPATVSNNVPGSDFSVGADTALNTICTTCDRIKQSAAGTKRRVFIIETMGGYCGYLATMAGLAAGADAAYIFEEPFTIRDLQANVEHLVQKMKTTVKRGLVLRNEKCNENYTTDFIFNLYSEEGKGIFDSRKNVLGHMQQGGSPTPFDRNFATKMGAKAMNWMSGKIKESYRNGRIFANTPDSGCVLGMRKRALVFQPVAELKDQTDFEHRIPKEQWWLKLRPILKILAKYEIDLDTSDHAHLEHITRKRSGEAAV
Procedure: as §1, §2, §3, §4

Jurkat cells [3] = experiment: Cytostatic assay (XTT cell proliferation); format: cell-based; conditions: 20-80 µM
Procedure: (§5) Untreated cells and cells treated with different concentrations of inhibitors were incubated for 72 hours before alive cellular biomass was determined according to the manufacturer’s instructions.
To investigate possible cytostatic effects of the inhibitors, the total cell number of Jurkat cells treated with vehicles of different concentrations of inhibitors was determined immediately after incubation.

MDA-MB-231 cells [4] = experiment: Cytostatic assay (XTT cell proliferation); format: cell-based; conditions: up to 80 µM, 72 hours
Procedure: as §5

Caco-2 cells [5] = experiment: Cytostatic assay (XTT cell proliferation); format: cell-based; conditions: up to 80 µM, 72 hours
Procedure: as §5

COLO 829 cells [6] = experiment: Cytostatic assay (XTT cell proliferation); format: cell-based; conditions: up to 80 µM, 72 hours
Procedure: as §5

Jurkat cells [7] = format: cell-based
Procedure: (§6) As a negative control, 100 µL Triton X-100 was added to wells containing 1mL medium with cells. For the survival evaluation in the dose-dependent tests, the measurements were conducted at the end of incubation at 72 hours of growth in the medium.
The potential cytotoxicity of the inhibitors was also assessed. At the end of the incubation, the average percentage of dead cells was determined in the presence of a vehicle and a 80 µM concentration of each inhibitor.

MDA-MB-231 cells [8] = experiment: Dose-dependent inhibition of lactate formation; format: cell-based; conditions: 20, 40, 60, 80 µM, up to 72 hours
Procedure: (§7) If not specified differently, the tumorigenic cells were plated in the RPMI 1640 GlutaMax medium (Thermo Fisher Scientific, Waltham, MA, USA) supplemented with 10% FBS at the concentration of 5 × 10^5 cells per mL. The cells were incubated at 37 °C and 5% CO2. Different concentrations of specific inhibitors were added to the medium at the beginning of inoculation. An adequate amount of DMSO used in the solution with the specified concentrations of compounds was added to the vehicle.
(§8) For measuring lactate concentrations in the medium, 20 µL samples were taken at specified time intervals, centrifuged at 1200 rpm for 5 minutes at 4 °C and 15 µL supernatants were preserved at 4 °C until analyzed.
(§9) Lactate levels were assessed enzymatically using an L-Lactic acid assay kit (K-LATE, Megazyme, Bray, Ireland) and measured according to the manufacturer’s instructions.
(§10) The lactate formation, growth yield, and survival under normal and inhibitory conditions of four tumorigenic cell lines were investigated. […] Cells were grown in the presence of vehicles or inhibitors at different concentrations (20, 40, 60, and 80 µM), and lactate levels in the supernatant were determined sequentially.

Jurkat cells [9] = experiment: Dose-dependent inhibition of lactate formation; format: cell-based; conditions: for Stability of the compounds during incubation, indicated by increasing lactate formation in later phases: Jurkat cell culture medium, after 24 hours up to 72 hours; for Lactate formation in the first 24 hours: Jurkat cells, 20, 40, 60, 80 µM, regardless of concentration, later dose-dependent lactate production up to 72 hours
Procedure: as §7, §8, §9, §10

Caco-2 cells [10] = experiment: Dose-dependent inhibition of lactate formation; format: cell-based; conditions: 20, 40, 60, 80 µM, up to 72 hours
Procedure: as §7, §8, §9, §10

MDA-MB-231 cells [11] = format: cell-based; conditions: 72 hours
Procedure: as §6

Caco-2 cells [12] = format: cell-based; conditions: 72 hours
Procedure: as §6

COLO 829 cells [13] = format: cell-based; conditions: 72 hours
Procedure: as §6

COLO 829 cells [14] = experiment: Dose-dependent inhibition of lactate formation; format: cell-based; conditions: 20, 40, 60, 80 µM, up to 72 hours
[15] = tested on: all tumorigenic cell lines tested; experiment: ROS/SOX reduction by sequential re-insertion, statement for all lines; format: cell-based; conditions: sequentially re-added every 24 hours
Procedure: After 78 hours cells were washed by centrifugation, and an aliquot of 1 × 10^5 cells was placed into 1 mL of phenol red-free IMDM medium (Thermo Fisher Scientific, Waltham, MA, USA) supplemented with 10% of FBS. The cells were incubated for an additional 3 hours before measurement.
For detecting ROS and SOX levels in the cells, 100 µL of medium was washed with PBS by standard centrifugation protocol and then placed into a well on the 96-well black wall/clear bottom plate. To each well 100 µL ROS detection reagent (Green) and SOX detection reagent (Orange) were added as specified in the Cellular ROS/SOX Detection Assay Kit (ab139476 Abcam, Cambridge, UK). For measuring superoxide Cellular Superoxide Detection Assay Kit (ab139477 Abcam, Cambridge, UK) was used that contains “Orange” but not the “Green” reagent.

[16] = target: T3, modified sfPFK-L enzyme (70 kDa fragment) (Homo sapiens, UniProt P17858); experiment: PFK1 enzymatic assay, modified sfPFK-L; format: biochemical
T3 construct: 45.920 Da [2] and short PFK-L of 69.942 Da fragments [3], respectively; made in house; host or cells: Saccharomyces cerevisiae pfk-null HD-114-8A
T3 sequence (P17858 2-648): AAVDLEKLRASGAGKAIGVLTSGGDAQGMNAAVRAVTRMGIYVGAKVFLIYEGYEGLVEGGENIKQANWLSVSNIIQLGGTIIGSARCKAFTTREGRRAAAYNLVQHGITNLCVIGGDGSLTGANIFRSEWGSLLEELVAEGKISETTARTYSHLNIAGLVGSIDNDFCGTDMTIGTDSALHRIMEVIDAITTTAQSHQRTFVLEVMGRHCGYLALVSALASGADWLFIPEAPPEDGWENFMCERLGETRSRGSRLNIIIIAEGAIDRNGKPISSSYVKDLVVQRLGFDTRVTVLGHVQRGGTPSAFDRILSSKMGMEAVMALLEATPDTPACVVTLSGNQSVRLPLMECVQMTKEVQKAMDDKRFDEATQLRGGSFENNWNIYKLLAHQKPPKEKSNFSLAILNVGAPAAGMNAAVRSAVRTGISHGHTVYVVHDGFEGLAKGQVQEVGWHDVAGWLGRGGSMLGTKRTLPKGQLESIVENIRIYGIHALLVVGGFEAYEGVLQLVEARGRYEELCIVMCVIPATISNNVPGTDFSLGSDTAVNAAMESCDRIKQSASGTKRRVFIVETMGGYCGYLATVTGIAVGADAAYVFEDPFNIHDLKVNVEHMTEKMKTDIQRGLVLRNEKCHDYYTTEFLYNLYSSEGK
Procedure: as §1, §2, §3, §4

[17] = 10 µM sequentially added every 24 hours

IC50 [1]: 15 µM and ~15 µM | IC50 [2]: 18 µM
SMILES: O=C(CSc1nnc(-c2ccc3c(c2)OCO3)o1)Nc1ccon1 [cmpd No. 3, 2-[(5-benzo[1,3]dioxol-5-yl-1,3,4-oxadiazol-2-yl)sulfanyl]-N-isoxazol-3-yl-acetamide]

Average percentage of dead cells (Jurkat cells [7]; 80 µM, end of incubation 72 hours): 3.74 ± 0.3% | Average percentage of dead cells, sequentially treated (Jurkat cells [7]; 10 µ L sequentially added every 24 hours, 72 hours): 3.24 ± 0.25% | Stability of the compounds during incubation, indicated by increasing lactate formation in later phases (Jurkat cells [9]): instability | Average percentage of dead cells, sequentially treated (MDA-MB-231 cells [11]; [17]): 2.35 ± 0.09% | Average percentage of dead cells (MDA-MB-231 cells [11]; dose-dependent test): 6.59 ± 0.29% | Average percentage of dead cells, sequentially treated (Caco-2 cells [12]; [17]): 4.03 ± 0.32% | Average percentage of dead cells (Caco-2 cells [12]; dose-dependent test, different concentrations of inhibitors): 3.33 ± 0.14% | Average percentage of dead cells, sequentially treated (COLO 829 cells [13]; [17]): 2.84 ± 0.19% | Average percentage of dead cells (COLO 829 cells [13]; dose-dependent test): 3.65 ± 0.78%
SMILES: COc1ccc(-c2cccc(-c3ccn(Cc4noc(C)n4)n3)c2)nn1 [cmpd No. 9, 3-methoxy-6-(3-{1-[(5-methyl-1,2,4-oxadiazol-3-yl)methyl]-1H-pyrazol-3-yl}phenyl)pyridazine]
Cytostatic effect (cells counted after 72 hours of incubation) (Jurkat cells [3]): no significant cytostatic | Cytostatic effect (total cell number) (MDA-MB-231 cells [4]): No significant differences in total cell number | Cytostatic effect (total number of cells at the end of incubation) (Caco-2 cells [5]): no adverse effects on cell growth | Cytostatic effect (total cell number compared to the control) (COLO 829 cells [6]): No significant differences in the total cell number | Lactate suppression, dose-dependent test (MDA-MB-231 cells [8]): Dose-dependent effects | Lactate formation in the first 24 hours (Jurkat cells [9]): no or only small amounts of lactate | Lactate accumulation, dose-dependent test (Caco-2 cells [10]): dose-dependent reduction in lactate accumulation | Lactate formation, dose-dependent test (COLO 829 cells [14]): Apparent dose-dependent effects of suppressed lactate formation | Reduction of ROS formation ([15]; 5 µM): approximately 50% | Reduction of ROS formation ([15]; 10 and 20 µM): approximately 65%

IC50 [16]: 8 µM | Stability of the compounds during incubation, indicated by increasing lactate formation in later phases (Jurkat cells [9]): instability
SMILES: Nc1nnc(-c2cc(-c3ccc(O)cc3)on2)o1 [cmpd No. 30, 4-[3-(5-amino-1,3,4-oxadiazol-2-yl)isoxazol-5-yl]phenol]
Lactate suppression, dose-dependent test (MDA-MB-231 cells [8]): Dose-dependent effects | Lactate formation in the first 24 hours (Jurkat cells [9]): no or only small amounts of lactate | Lactate accumulation, dose-dependent test (Caco-2 cells [10]): dose-dependent reduction in lactate accumulation
